From patent publication US20210290644A1, “COMPOUNDS AND METHODS FOR TREATING FUNGAL INFECTIONS” (Amplyx Pharmaceuticals, Inc., priority 2018, published 2021)
“And” between values parts separate entries of the source, which are not always exact repeats. Equal values may be shown once. “Also recorded” adds a separate entry of the source.

Columns and labels:
[1] = clinical; details: human, plasma, po, 400 mg
Description: (§1) Study #2 of Compound 1 was a Phase 1, double-blind, placebo-controlled, randomized study in healthy volunteers that consisted of a series of single and multiple dose treatments. In the single ascending dose (SAD) phase, subjects in Cohort 1a received a single IV dose in Period A and then rising single oral doses in Periods B to D. Subjects in Cohort 1b received a single oral dose under fed and fasted conditions in Periods E and F. Subjects in Cohorts 2 and 3 received once-daily oral doses for 14 days, as did subjects in Cohort 4 as part of an in vivo screen for drug-drug interaction (DDI) potential.
(§2) Blood samples for the determination of Compound 1 and Compound 1A plasma concentrations were collected before and at appropriate times during all single and multiple dose administrations of Compound 1. For SAD Cohorts 1a and 1b, urine samples for the determination of Compound 1A were collected through 48 hrs after dosing.

[2] = clinical; details: both, human, iv; for clearance / half-life: in vivo
Description: (§3) This was a Phase 1, first-in-human, randomized, double-blind, placebo-controlled single ascending dose (SAD) and multiple ascending dose (MAD) escalation study of 120 healthy male and female subjects. The objectives of the study were to evaluate the safety, tolerability, and pharmacokinetics of single and multiple doses of Compound 1 administered by intravenous (IV) infusion.
(§4) In the single ascending dose (SAD) phase, Cohorts 1 to 6 and 11A to 11D received single doses. For Cohorts 11A to 11D, the infusion time varied from 0.5 to 3 hours to evaluate the relationship between C., and tolerability. In the multiple ascending dose (MAD) phase, Cohorts 7 to 10 received multiple doses over 14 days, and Cohort 12 examined the feasibility of a loading dose regimen.
(§5) Blood samples for the determination of Compound 1 and Compound 1A plasma concentrations were collected before and at appropriate times during all single- and multiple-dose administrations of Compound 1. For SAD Cohorts 1 to 6, urine samples for the determination of Compound 1A were collected through 48 hrs after dosing.
(§6) Eighty (80) subjects were enrolled into SAD Cohorts 1 to 6 and 11A to 11D. Within each cohort, six subjects were randomized to Compound 1 and two subjects to placebo. All 60 subjects randomized to Compound 1 completed dosing. Fifty-nine (59) subjects completed the study.
(§7) Forty (40) subjects were enrolled into MAD Cohorts 7 to 10 and Loading Dose Cohort 12. Within each cohort, six subjects were randomized to Compound 1 and two subjects to placebo.
(§8) The PK analysis population therefore consisted of 60 subjects in the SAD phase and 28 subjects in the MAD phase.

[3] = Study #2 Phase 1: effect of food (fed vs fasted) on pharmacokinetics of Compound 1A after 400 mg oral Compound 1; details: for F: 400 mg oral, ratio of geometric mean AUC(inf) to IV treatment after correction for dose;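 for all read-outs here: cohort 1b subjects took one oral dose in both fed and fasted states, across two separate periods (E, F) within the single ascending dose phase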
Description: as §1, §2

[4] = human, in vivo
Description: as §3, §4, §5, §6, §7, §8

[5] = Study #2 Phase 1: pharmacokinetics after single IV and single/multiple oral doses of Compound 1, absolute oral bioavailability; details: human, plasma; for Tmax: median;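 for all read-outs here: phase 1 study design: one IV dose, then escalating single oral doses, fed versus fasted single oral dosing, and once-daily oral dosing over 14 days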
Description: In the single ascending dose (SAD) phase, subjects in Cohort 1a received a single IV dose in Period A and then rising single oral doses in Periods B to D. Subjects in Cohort 1b received a single oral dose under fed and fasted conditions in Periods E and F. Subjects in Cohorts 2 and 3 received once-daily oral doses for 14 days, as did subjects in Cohort 4 as part of an in vivo screen for drug-drug interaction (DDI) potential.
For SAD Cohorts 1a and 1b, urine samples for the determination of Compound 1A were collected through 48 hrs after dosing.
Forty-six (46) subjects were enrolled into the study, 8 in Cohort 1a, 10 in Cohort 1b, and 8 each in Cohorts 2 and 3.

[6] = Cohort 1B, 400 mg oral Compound 1, fed vs fasted

SMILES: Nc1ncccc1-c1cc(Cc2ccc(COc3ccccn3)cc2)no1 [Compound 1A]
- AUC(0-inf) [1]: 177 µg·h/mL
- CL/F [1]: 0.418 mL/min/kg
- Cmax [1]: 4250 ng/mL
- Vd/F [1]: 161 L and 2.35 L/kg
- half-life [1]: 64.7 h
- clearance [2]: 25.7 mL/min and 0.348 mL/min/kg
- half-life [2]: 74.9 h
- clearance ([2]; CL): 31.5 mL/min and 0.45 mL/min/kg
- half-life ([2]; geometric mean T1/2, range across treatments): 39.2 to 74.9 h
- half-life ([2]; geometric mean t1/2, range across cohorts): 48 to 69 h
- half-life ([2]; t½): 39.2 h
- AUC(0-t) ([2]; plasma, 150 mg): 51.9 µg·h/mL
- Cmax ([2]; plasma, 150 mg): 3420 ng/mL
- Vd ([2]; plasma, 150 mg): 174 L and 2.17 L/kg
- AUC(0-inf) ([2]; plasma, 350 mg): 173 µg·h/mL
- Cmax ([2]; plasma, 350 mg): 4330 ng/mL
- Vd ([2]; plasma, 350 mg): 167 L and 2.26 L/kg
- effect of high fat/high calorie meal on bioavailability/exposure ([3]; 400 mg oral Compound 1): no significant effect; also recorded: no impact of food
- least squares geometric mean ratios (LSGMR) fed/fasted for Cmax and both AUCs ([3]; 400 mg oral Compound 1, high fat/high calorie meal): ~106%
- Geometric Mean Ratio, AUC(0-t) [3, 6]: 106.00%
- Geometric Mean Ratio, AUC(inf) [3, 6]: 106.15%
- Geometric Mean Ratio, Cmax [3, 6]: 106.29%
- F ([3]; Cohort 1B, Fasted): 101.2%
- F ([3]; Cohort 1B, Fed): 107.4%
- AUC(0-t) ([3]; human, plasma, po, 400 mg, AUC(0-24), Cohort 1B, 400 mg oral Compound 1, Fed, geometric mean): 43.6 µg·h/mL
- AUC(0-t) ([3]; human, plasma, po, 400 mg, AUC(0-t), Cohort 1B, 400 mg oral Compound 1, Fed, geometric mean): 180 µg·h/mL
- AUC(0-inf) ([3]; human, plasma, po, 400 mg, AUC(inf), Cohort 1B, 400 mg oral Compound 1, Fed, geometric mean): 188 µg·h/mL
- CL/F ([3]; human, plasma, po, 400 mg, CL/F, Cohort 1B, 400 mg oral Compound 1, Fed, geometric mean): 0.395 mL/min/kg
- Cmax ([3]; human, plasma, po, 400 mg, Cmax, Cohort 1B, 400 mg oral Compound 1, Fed, geometric mean): 4520 ng/mL
- Tmax ([3]; human, plasma, po, 400 mg, Tmax, Cohort 1B, 400 mg oral Compound 1, Fasted, median): 2.5 h
- Tmax ([3]; human, plasma, po, 400 mg, Tmax, Cohort 1B, 400 mg oral Compound 1, Fed, median): 3.75 h
- Vd/F ([3]; human, plasma, po, 400 mg, Vz/F, Cohort 1B, 400 mg oral Compound 1, Fed, geometric mean): 159 L and 2.3 L/kg
- Tmax ([3]; human, plasma, po, 400 mg, median tmax, 400 mg oral Compound 1, fasted conditions): 2.5 h
- Tmax ([3]; human, plasma, po, 400 mg, median tmax, 400 mg oral Compound 1, fed conditions): 3.75 h
- half-life ([3]; human, plasma, po, 400 mg, t½, Cohort 1B, 400 mg oral Compound 1, Fed, geometric mean): 67.5 h
- slope of log-log AUC0-24 vs. dose (power model parameter b) ([4]; both): 1.015±0.043
- slope of log-log steady-state Cmax vs. dose (power model parameter b) ([4]; both): 1.039±0.031
- CL ([4]; both, iv): 0.387 mL/min/kg
- median accumulation, ratio of AUC0-24 on Day 14 to Day 1 ([4]; both, iv): 3.27
- median accumulation, ratio of Cmax on Day 14 to Day 1 ([4]; both, iv): 1.96
- slope of log-log AUC(inf) versus dose (power model parameter b) ([4]; both, iv): 1.01±0.020
- slope of log-log Cmax versus dose (power model parameter b) ([4]; both, iv): 0.929±0.021
- time at which steady-state is reached ([4]; both, iv): between Day 7 and Day 14
- target plasma exposures (AUC0-24) for clinical efficacy against Candida spp., Aspergillus spp., rare molds ([4]; iv): exceeded
- AUC(0-inf) ([5]; iv, 200 mg): 87.5 µg·h/mL
- Vd ([5]; iv, 200 mg): 124 L and 1.6 L/kg
- clearance ([5]; iv, 200 mg): 29.1 mL/min and 0.377 mL/min/kg
- AUC(0-t) ([5]; iv, 200 mg, AUC(0-24), 200 mg/3 hr IV Compound 1, fasted, geometric mean): 24.4 µg·h/mL
- AUC(0-t) ([5]; iv, 200 mg, AUC(0-t), 200 mg/3 hr IV Compound 1, fasted, geometric mean): 86.3 µg·h/mL
- Cmax ([5]; iv, 200 mg, 200 mg/3 hr IV Compound 1, fasted, geometric mean): 2640 ng/mL
- Tmax ([5]; iv, 200 mg, 200 mg/3 hr IV Compound 1, fasted): 3 h
- half-life ([5]; iv, 200 mg, geometric mean t1/2, IV treatment, 200 mg Compound 1 over 3 hrs): 49.1 h
- half-life ([5]; iv, 200 mg, t½, 200 mg/3 hr IV Compound 1, fasted, geometric mean): 49.1 h
- bioavailability ([5]; oral): 90.6 to 101%
- AUC(0-t) ([5]; oral, 500 mg, AUC(0-24), Day 1, Cohort 2, 500 mg Tablets QD × 14 Days, fed, geometric mean): 50.7 µg·h/mL
- AUC(0-t) ([5]; oral, 500 mg, AUC(0-24), Day 7, Cohort 2, 500 mg Tablets QD × 14 Days, fed, geometric mean): 154 µg·h/mL
- AUC(0-t) ([5]; oral, 500 mg, AUC(0-24), Day 14, Cohort 2, 500 mg Tablets QD × 14 Days, fed, geometric mean): 191 µg·h/mL
- CL/F ([5]; oral, 500 mg, CL, Day 14, Cohort 2, 500 mg Tablets QD × 14 Days, fed, geometric mean): 0.462 mL/min/kg
- Cmax ([5]; oral, 500 mg, Day 1, Cohort 2, 500 mg Tablets QD × 14 Days, fed, geometric mean): 6180 ng/mL
- Cmax ([5]; oral, 500 mg, Day 7, Cohort 2, 500 mg Tablets QD × 14 Days, fed, geometric mean): 10900 ng/mL
- Cmax ([5]; oral, 500 mg, Day 14, Cohort 2, 500 mg Tablets QD × 14 Days, fed, geometric mean): 12000 ng/mL
- Tmax ([5]; oral, 500 mg, Day 1, Cohort 2, 500 mg Tablets QD × 14 Days, fed): 4 h
- Tmax ([5]; oral, 500 mg, Day 7, Cohort 2, 500 mg Tablets QD × 14 Days, fed): 3.76 h
